Data: patent publication US20170042196A1, “USE OF UMAMI COMPOUNDS TO ENHANCE SALTINESS” (Senomyx, Inc., priority 2015, published 2017)

Tests used:
Format in all cases: in vivo
[1] = test system: trained panelists (saltiness perception); assay: 2-Alternative Forced Choice human taste test, saltiness in low sodium chicken broth; settings: for Sample selected as saltier by panelists (Total): 55° C.; for saltiness of test sample versus control sample: p<0.1
Procedure: Samples of low sodium chicken broth were prepared and compared using human taste tests. Control samples contained low sodium chicken broth alone. Test samples contained the same low sodium chicken broth to which a specific umami compound was added at a specified concentration. To prepare the test sample, a concentrated stock solution of an umami compound was prepared in ethanol. […] To create the control sample, the chicken broth was balanced with 0.1% ethanol. All samples were served at 55° C. Trained panelists were used to complete the test with three replicates (subject number reported in each table). A 2-Alternative Forced Choice test was used, where panelists received two three-digit blind-coded samples, one control and one test sample, in randomized, counter-balanced order. Panelists tasted samples, rinsing with water between samples, and indicated which of the two samples was […]. The results were analyzed using a binomial distribution with alpha=0.1.

[2] = test system: trained panelists (saltiness perception); assay: 2-Alternative Forced Choice human taste test, saltiness in chicken broth (low sodium broth + 100 mM NaCl); settings: for Sample selected as saltier by panelists (Total): 0.1% ethanol, 55° C.; for saltiness of test sample versus control sample: p<0.1
Procedure: Samples of chicken broth were prepared and compared using human taste tests. Control samples contained chicken broth alone. Test samples contained the same chicken broth to which a specific umami compound was added at a specified concentration. To prepare the test sample, a concentrated stock solution of an umami compound was prepared in ethanol. The stock solution was added to a commercially available no-MSG added, low sodium chicken broth (Pacific Organic Free Range Chicken Broth Low Sodium), to which 100 mM NaCl was also added, resulting in a final concentration of the umami compound in the test sample with 0.1% ethanol. To create the control sample, 100 mM NaCl was added to the low sodium chicken broth, and it was balanced with 0.1% ethanol. All samples were served at 55° C. A 2-Alternative Forced Choice test was used, where panelists received two three-digit blind-coded samples, one control and one test sample, in randomized, counter-balanced order. Panelists tasted samples, rinsing with water between samples, and indicated which of the two samples was […]. The results were analyzed using a binomial distribution with alpha=0.1.

[3] = test system: trained panelists (saltiness perception); assay: Difference from Reference scaling human taste test, saltiness in low sodium chicken broth
Procedure: Samples of low sodium chicken broth were prepared and compared using human taste tests. The reference samples contained low sodium chicken broth alone. The test samples contained the same low sodium chicken broth to which a specific umami compound was added. To prepare the test samples, a concentrated stock solution of an umami compound was prepared in ethanol. The stock solution was added to a commercially available no-MSG added, low sodium chicken broth (Pacific Organic Free Range Chicken Broth Low Sodium), resulting in a final concentration of the umami compound in the test sample with 0.1% ethanol. To create the reference sample, the low sodium chicken broth was balanced with 0.1% ethanol. All samples were served at 55° C. Trained panelists were used to complete the test with two replicates (subject number reported in each table). A Difference from Reference scaling test was used. Panelists received pairs of samples, consisting of the reference sample and a three-digit blind coded sample, which was either the reference sample again (i.e., a negative control), or the test sample containing the compound of interest. Panelists first tasted the reference sample, then rinsed with water and tasted the blind-coded sample. Panelists were asked to score the test sample for differences in saltiness as compared to the reference sample. […] The test also included measurement of other attributes rated on separate scales (e.g., umami intensity, bitterness, and chicken flavor) to ensure responses for saltiness focused solely on that attribute. The order in which panelists received sample pairs containing either the reference or the test sample as the three-digit blind coded sample was randomized and counterbalanced. The results were analyzed using a two-tailed Student's t-test, with alpha=0.1.

SMILES: CCCC(CCC)NC(=O)c1ccc2c(c1)OCO2 [Formula (1a)]
- Sample selected as saltier by panelists (Total) ([1]; 2 ppm in low sodium chicken broth, 0.05% ethanol, n = 48 (16 panelists × 3 replicates)): 35
- saltiness of test sample versus control sample ([1]; 2 ppm in low sodium chicken broth): significantly saltier
- Sample selected as saltier by panelists (Total) ([2]; 2 ppm in chicken broth (100 mM NaCl added), n = 48 (16 panelists × 3 replicates)): 31
- saltiness of test sample versus control sample ([2]; 2 ppm in chicken broth (100 mM NaCl added)): significantly saltier

SMILES: COc1cccc(-c2n[nH]c(SCc3ccccn3)n2)c1OC [Formula (1b)]
- Sample selected as saltier by panelists (Total) ([1]; 5 ppm in low sodium chicken broth, 0.1% ethanol, n = 48 (16 panelists × 3 replicates)): 33
- saltiness of test sample versus control sample ([1]; 5 ppm in low sodium chicken broth): significantly saltier
- Average Saltiness Score of Test Sample as compared to Reference Sample ([3]; 5 ppm in low sodium chicken broth, 11-point scale −5 to +5, n = 24 (12 panelists × 2 replicates)): 0.7
- saltiness of test sample versus reference sample ([3]; 5 ppm in low sodium chicken broth, p<0.1): significantly saltier

SMILES: COc1cc(C)ccc1CNC(=O)C(=O)NCCc1ccccn1 [Formula (1c)]
- Sample selected as saltier by panelists (Total) ([1]; 1 ppm in low sodium chicken broth, 0.1% ethanol, n = 48 (16 panelists × 3 replicates)): 36
- saltiness of test sample versus control sample ([1]; 1 ppm in low sodium chicken broth): significantly saltier
- Sample selected as saltier by panelists (Total) ([2]; 1 ppm in chicken broth (100 mM NaCl added), n = 51 (17 panelists × 3 replicates)): 33
- saltiness of test sample versus control sample ([2]; 1 ppm in chicken broth (100 mM NaCl added)): significantly saltier

SMILES: COc1cccc(CNC(=O)C(=O)NCCc2ccccn2)c1OC [Formula (1d)]
- Sample selected as saltier by panelists (Total) ([1]; 8 ppm in low sodium chicken broth, 0.1% ethanol, n = 51 (17 panelists × 3 replicates)): 37
- saltiness of test sample versus control sample ([1]; 8 ppm in low sodium chicken broth): significantly saltier
- Sample selected as saltier by panelists (Total) ([2]; 8 ppm in chicken broth (100 mM NaCl added), n = 48 (16 panelists × 3 replicates)): 31
- saltiness of test sample versus control sample ([2]; 8 ppm in chicken broth (100 mM NaCl added)): significantly saltier
- Average Saltiness Score of Test Sample as compared to Reference Sample ([3]; 8 ppm in low sodium chicken broth, 11-point scale −5 to +5, n = 30 (15 panelists × 2 replicates)): 0.8
- saltiness of test sample versus reference sample ([3]; 8 ppm in low sodium chicken broth, p<0.1): significantly saltier

SMILES: COC[C@@H](CC(C)C)NC(=O)c1ccc(C)c(C)c1 [Formula (1e)]
- Sample selected as saltier by panelists (Total) ([1]; 2 ppm in low sodium chicken broth, 0.1% ethanol, n = 51 (17 panelists × 3 replicates)): 32
- saltiness of test sample versus control sample ([1]; 2 ppm in low sodium chicken broth, 0.1% ethanol): significantly saltier
- Average Saltiness Score of Test Sample as compared to Reference Sample ([3]; 2 ppm in low sodium chicken broth, 11-point scale −5 to +5, n = 30 (15 panelists × 2 replicates)): 0.5
- saltiness of test sample versus reference sample ([3]; 2 ppm in low sodium chicken broth, p<0.1): significantly saltier

SMILES: COc1cc(C)ccc1CNC(=O)C(=O)NCCc1ccc(C)cn1 [Formula (1f)]
- Sample selected as saltier by panelists (Total) ([2]; 2 ppm Formula (1f) in chicken broth (100 mM NaCl added), n = 48 (16 panelists × 3 replicates)): 32
- saltiness of test sample versus control sample ([2]; 2 ppm Formula (1f) in chicken broth (100 mM NaCl added)): significantly saltier
- Average Saltiness Score of Test Sample as compared to Reference Sample ([3]; 1 ppm in low sodium chicken broth, 11-point scale −5 to +5, n = 26 (13 panelists × 2 replicates)): 1.0
- saltiness of test sample versus reference sample ([3]; 1 ppm in low sodium chicken broth, n = 26, p<0.1): significantly saltier

SMILES: COc1ccc(CNC(=O)C(=O)NCCc2ccccn2)c(OC)c1 [Formula (1g)]
- Average Saltiness Score of Test Sample as compared to Reference Sample ([3]; 1 ppm in low sodium chicken broth, 11-point scale −5 to +5, n = 30 (15 panelists × 2 replicates)): 0.5
- saltiness of test sample versus reference sample ([3]; 1 ppm in low sodium chicken broth, n = 30, p<0.1): significantly saltier
